Columns and labels:
[1] = test system: MV4-11 cells; experiment: combination with doxorubicin in MV4-11 cell line; format: cell-based, human; settings: MV4-11 AML cell line
[2] = test system: human cone PDE6 (PDE6C); settings: in vitro biochemical assays; relative to CB-5083
[3] = test system: MV4-11 cells; experiment: cellular viability of MV4-11 AML cell line; format: cell-based, human
[4] = format: in vivo; settings: mice
[5] = test system: γH2AX; experiment: FACS analysis of intracellular gammaH2AX in AML cells; format: cell-based, human
[6] = in vivo
[7] = test system: P-ATM (S1981); experiment: ATM phosphorylation upon etoposide DSB induction; format: cell-based, human; settings: upon etoposide DSBs induction
[8] = test system: poly-ubiquitinated proteins, GRP78, spliced XBP-1, ATF-4; format: cell-based, human
[9] = preclinical pharmacokinetics in multiple species; format: in vivo; settings: preclinical studies in multiple species
[10] = test system: patient-derived primary AML cells; experiment: orthotopic patient-derived xenograft; format: in vivo, mouse; settings: PDX; for leukemic disease burden: hCD45+ cells in peripheral blood or bone marrow
[11] = test system: MLL-AF9 cells; experiment: MLL-AF9 syngeneic AML mouse model; format: in vivo; settings: for leukemic disease burden: peripheral blood / bone marrow
[12] = test system: UT-7 cells expressing VCP (A530T); experiment: growth inhibition of UT-7 cells expressing NMS-873-resistant VCP; format: cell-based, human; settings: four days
[13] = test system: GC92-NHEJ-CD4 cells; experiment: non-homologous end-joining reporter; format: cell-based; settings: 0.4 μM; 48 hours post-transfection with I-SceI
[14] = cited from earlier work
[15] = test system: MV4-11 and UT-7 AML cell lines; experiment: Annexin V/propidium iodide staining and flow cytometry; format: cell-based, human; settings: 0.2 μM for 8 days
[16] = test system: primary patient AML blasts; experiment: colony-forming assay of primary patient AML samples in methylcellulose; format: cell-based, human; settings: leukemia cells from patients with AML
[17] = test system: RG37-DR-GFP cells; experiment: homologous recombination reporter; format: cell-based; settings: 0.4 μM; 48 hours post-transfection with I-SceI
[18] = test system: MV4-11-luc cells; settings: MV4-11 xenograft
[19] = test system: panel of human cancer cell lines; experiment: viability across a panel of human cancer cell lines; format: cell-based; settings: 131 human cancer cell lines, 16 cancer types; three days
[20] = phase I trial; ref NCT02243917; cited from earlier work

Structure (SMILES): Cc1cc2c(C(N)=O)cccc2n1-c1nc2c(c(NCc3ccccc3)n1)CCCN2 [CB-5339]
- interaction with doxorubicin [1]: synergized with doxorubicin
- fold less active on human cone PDE6 (PDE6C) compared to CB-5083 [2]: 15 fold
- IC50 [3]: 186 nM
- tolerability (weight, blood counts) [4]: well tolerated
- effect on γH2AX accumulation ([5]; 0.2 μM): increased γH2AX accumulation
- times lower Cmax in rat retina compared to CB-5083 [6]: 31 times
- effect on ATM phosphorylation [7]: impaired ATM phosphorylation
- concentration at which ATF-4 accumulated ([8]; AML context): ≥ 0.8 µM
- concentration at which ER stress marker GRP78 accumulated ([8]; AML context): ≥ 0.4 µM
- concentration at which spliced XBP-1 accumulated ([8]; AML context): ≥ 1.6 µM
- concentration inducing polyubiquitin protein accumulation ([8]; AML context, dose-dependent): ≥ 0.4 µM
- bioavailability compared to CB-5083 [9]: higher bioavailability
- clearance compared to CB-5083 [9]: lower clearance
- survival ([10]; 90 mg/kg): prolonged mice survival
- leukemic disease burden [10]: decreased bone marrow leukemic infiltration
- survival [11]: prolonged survival
- leukemic disease burden [11]: decreased circulating leukemic cells

Structure (SMILES): Cc1cc(OCc2nnc(SC3CCCC3)n2-c2cccnc2)ccc1-c1ccc(S(C)(=O)=O)cc1 [NMS-873]
- effect of VCP (A530T) expression on compound-induced loss of viability [12]: rescued the loss of viability
- effect on γH2AX ([5]; MV4-11 and UT-7, 0.4 μM, 72 hours): increased γH2AX
- effect on non-homologous end-joining (NHEJ) [13]: did not impair NHEJ
- pharmacological and bioavailability properties [14]: lacks appropriate pharmacological and bioavailability properties
- concentration at which poly-ubiquitinated proteins started to accumulate ([8]; AML cells): 5 µM
- cell death / apoptosis [15]: induced Annexin-positive cell death
- colony formation of AML blasts [16]: impaired the capacity of AML blasts to form colonies
- effect on homologous recombination (HR) DSB repair [17]: impairment of HR

Structure (SMILES): Cc1cc2c(C(N)=O)cccc2n1-c1nc2c(c(NCc3ccccc3)n1)COCC2 [CB-5083]
- tolerability (weight, blood counts) [4]: no major weight loss or hematopoietic toxicity
- disease burden (bioluminescence) [18]: decreased disease burden
- survival [18]: prolonged mice survival
- sensitivity of AML cell lines versus other cancer subtypes [19]: more sensitive
- myelosuppression in patients [20]: not myelosuppressive
- colony formation of AML blasts [16]: impaired the capacity of AML blasts to form colonies
- leukemic disease burden [10]: substantially decreased disease burden
- survival [11]: prolonged mice survival
- leukemic disease burden [11]: decreased disease burden
